The values below come from patent publication US11352350B2, “IRAK degraders and uses thereof” (Kymera Therapeutics, Inc., priority 2018, dated 2022).

Read-outs that look alike come from different tables or passages of the source. A value given as a limit tells only on which side of the number the result lay.

One assay has as its system OCI-LY10. Description: CTG Cell Viability Assay - OCI-LY10. As to conditions: Homo sapiens, OCI-Ly10, 96 h, OCI-LY10, 4 days; read-out: CTG Cell Viability Assay - OCI-LY10: Average external-IC50. In kind it is cell-based, human. The essentials:
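Viability read by CellTiter-Glo luminescence after 4 days at 37° C under 5% CO2 with compound (top 10 μM final, 1:3 steps, 9 doses, DMSO 0.2%). Three-parameter logistic fit gave IC50.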

Another assay deals with IRAK4 (Homo sapiens (Human), UniProt Q9NWZ3). Description: IRAK4 MSD degradation in OCI-LY10. The class given is cell-based. In a few lines:
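Remaining IRAK4 quantified by electrochemiluminescent MSD sandwich assay with two anti-IRAK4 antibodies. Compounds were dosed as 8 concentrations in 1:3 steps from a 1 to 10 μM final top on OCI-LY10 cells, incubated 4 to 24 h at 37° C. under 5% CO2. DC50 fitted with a three-parameter logistic curve.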

[1] abbreviates: OCI-LY10, 4 hrs, MSD, read-out: IRAK4 MSD degradation in OCI-LY10 at 4 hrs: Average external-Abs DC50.
Setting [2] is: OCI-LY10, 24 hrs, MSD, read-out: IRAK4 MSD degradation in OCI-LY10 at 24 hrs: Average external-Abs DC50.
[3] abbreviates: OCI-LY10, 4 hrs, read-out: IRAK4 MSD degradation in OCI-LY10 at 4 hrs: DC50.
Setting [4] is: OCI-LY10, 24 hrs, read-out: IRAK4 MSD degradation in OCI-LY10 at 24 hrs: DC50.

By IC50 is commonly meant the concentration that gives 50% inhibition. For orientation: DC50 means the concentration giving 50% degradation.

Chain of IRAK4 (Q9NWZ3 whole entry): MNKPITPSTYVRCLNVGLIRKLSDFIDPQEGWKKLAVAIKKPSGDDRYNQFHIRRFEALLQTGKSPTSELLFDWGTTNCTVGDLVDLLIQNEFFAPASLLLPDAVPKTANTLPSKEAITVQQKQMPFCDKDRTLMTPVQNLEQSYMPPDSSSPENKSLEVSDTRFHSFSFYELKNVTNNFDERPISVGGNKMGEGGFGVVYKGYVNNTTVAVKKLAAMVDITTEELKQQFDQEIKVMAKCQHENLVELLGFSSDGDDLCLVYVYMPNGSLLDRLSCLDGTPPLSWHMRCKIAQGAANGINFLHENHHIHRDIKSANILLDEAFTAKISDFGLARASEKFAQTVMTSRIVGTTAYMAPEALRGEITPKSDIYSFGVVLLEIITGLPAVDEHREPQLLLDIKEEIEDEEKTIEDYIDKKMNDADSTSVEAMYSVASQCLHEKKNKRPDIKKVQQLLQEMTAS

With `Cn1c(=O)n(C2CCC(=O)NC2=O)c2cccc(CCN3CC4(CCN(C[C@H]5CC[C@H](n6cc(NC(=O)c7cnn8ccc(N9CCOCC9)nc78)c(C(F)F)n6)CC5)CC4)C3)c21` (some centres unmarked) [I-183], in the assay with OCI-LY10, the half-inhibitory concentration (IC50) was below 50 nM. For the same compound, the DC50 on IRAK4 (setting [1]) and on IRAK4 (setting [2]) was below 10 nM each time.
On to `CN(CC1CC1)c1ccn2ncc(C(=O)Nc3cn([C@H]4CC[C@H](CN(C)[C@H]5CC[C@H](Nc6cccc7c6C(=O)N(C6CCC(=O)NC6=O)C7=O)CC5)CC4)nc3C(F)F)c2n1` (some centres unmarked) [I-455], for which, in the assay on OCI-LY10, the IC50 was 50 to 100 nM. The DC50 on IRAK4 (setting [3]) and on IRAK4 (setting [4]) was 10 to 100 nM in each case.
Consider `Cc1ccc(-n2nc(C3CCN(C(=O)CCCCOCCCc4cccc5c4n(C)c(=O)n5C4CCC(=O)NC4=O)CC3)cc2NC(=O)c2cnn3cccnc23)nc1` (centres unmarked) [I-160], for which the IC50 in the assay with OCI-LY10 was above 1000 nM. For the same compound, the half-maximal degradation concentration (DC50) at IRAK4 (setting [1]) and at IRAK4 (setting [2]) was above 1000 nM throughout.
For `CN(CCOCCNCc1ccc2c(c1)n(C)c(=O)n2C1CCC(=O)NC1=O)C[C@H]1CC[C@H](n2cc(NC(=O)c3coc(-c4ccnc(NCC5CC5)c4)n3)c(C(F)F)n2)CC1` (some centres unmarked) [I-107], the half-inhibitory concentration (IC50) in the assay on OCI-LY10 is above 1000 nM. For the same compound, the DC50 on IRAK4 (setting [1]) is below 10 nM.
With `O=C1CCC(N2C(=O)c3cccc(OCCCOC4CCN(C[C@H]5CC[C@H](n6cc(NC(=O)c7cnn8ccc(N[C@@H]9CCCC[C@@H]9O)nc78)c(C(F)F)n6)CC5)CC4)c3C2=O)C(=O)N1` (some centres unmarked) [I-296], the IC50 in the assay on OCI-LY10 is above 1000 nM. Further, the 50% degradation concentration (DC50) on IRAK4 (setting [1]) fell in the range of 10 to 100 nM.
As for `O=C1CCC(N2Cc3c(NCCOCC4CCN(C[C@H]5CC[C@H](n6cc(NC(=O)c7cnn8ccc(N9C[C@H]%10C[C@@H]9CO%10)nc78)c(C(F)F)n6)CC5)CC4)cccc3C2=O)C(=O)N1` (some centres unmarked) [I-374], the IC50 with OCI-LY10 is above 1000 nM. Further, the 50% degradation concentration (DC50) at IRAK4 (setting [1]) was above 1000 nM; on IRAK4 (setting [2]), 10 to 100 nM.
Regarding `CN1C(=O)C(C2CCC(=O)NC2=O)c2cccc(CCCOC3CCN(C[C@H]4CC[C@H](n5cc(NC(=O)c6cnn7ccc(N8CC9(COC9)C8)nc67)c(C(F)F)n5)CC4)CC3)c21` (some centres unmarked) [I-287], the 50% inhibitory concentration (IC50) with OCI-LY10 was above 1000 nM. Also, on IRAK4 (setting [1]), the DC50 is below 10 nM.
Regarding `CN(C[C@H]1CC[C@H](n2cc(NC(=O)c3cnn4ccc(NCC5CC5)nc34)c(C(F)F)n2)CC1)[C@H]1CC[C@H](Nc2cccc3c2C(=O)N(C2CCC(=O)NC2=O)C3=O)CC1` (some centres unmarked) [I-453], the half-inhibitory concentration (IC50) in the assay with OCI-LY10 is 50 to 100 nM. For the same compound, the DC50 is 10 to 100 nM on IRAK4 (setting [3]) and below 10 nM at IRAK4 (setting [4]).
Consider `Cn1c(=O)n(C2CCC(=O)NC2=O)c2cccc(CCCOC3CCN(C[C@H]4CC[C@H](n5cc(NC(=O)c6cnn7ccc(N8CCC(O)CC8)nc67)c(C(F)F)n5)CC4)CC3)c21` (some centres unmarked) [I-157], for which the IC50 in the assay with OCI-LY10 is above 1000 nM. The DC50 at IRAK4 (setting [1]) was below 10 nM.
Consider `Cn1c(=O)n(C2CCC(=O)NC2=O)c2cccc(CCCOC3CCN([C@H]4CC[C@H](Nc5ncnc6ccc(C#N)cc56)CC4)CC3)c21` (some centres unmarked) [I-304, 4-[[4-[4-[3-[1-(2,6-dioxo-3-piperidyl)-3-methyl-2-oxo-benzimidazol-4-yl]propoxy]-1-piperidyl]cyclohexyl]amino] quinazoline-6-carbonitrile], for which the 50% inhibitory concentration (IC50) in the assay with OCI-LY10 is above 1000 nM. Moreover, the DC50 on IRAK4 (setting [1]) and on IRAK4 (setting [2]) was above 1000 nM in each case.
For `CC[C@@H]1[C@H](F)C(=O)N[C@@H]1COc1ncc(C#C[C@H]2CC[C@H](CN3CCC(OCCC#Cc4ccc([C@H]5CN(C6CCC(=O)NC6=O)C(=O)O5)cc4)CC3)CC2)c2cc(C(N)=O)c(OC)cc12` (some centres unmarked) [I-206], in the assay with OCI-LY10, the half-inhibitory concentration (IC50) is above 1000 nM. Also, the DC50 on IRAK4 (setting [1]) and on IRAK4 (setting [2]) was 10 to 100 nM in each case.
Take `O=C1CCC(N2C(=O)c3cccc(N4CCC(CCCN5CCC(n6cc(NC(=O)c7cnn8ccc(N[C@@H]9CCCC[C@@H]9O)nc78)c(C(F)F)n6)CC5)CC4)c3C2=O)C(=O)N1` (some centres unmarked) [I-298]: in the assay on OCI-LY10, the IC50 is 100 to 500 nM. For the same compound, the DC50 at IRAK4 (setting [1]) was in the range of 100 to 1000 nM.
On to `Cn1c(=O)n(C2CCC(=O)NC2=O)c2cccc(CN3CCC(CN4CCC(n5cc(NC(=O)c6coc(-c7ccnc(NCC8CC8)c7)n6)c(C(F)F)n5)CC4)CC3)c21` (centres unmarked) [I-265], for which the IC50 with OCI-LY10 was below 50 nM. Further, the DC50 at IRAK4 (setting [1]) lay in the range of 10 to 100 nM.
As to `CN(C[C@H]1CC[C@H](n2cc(NC(=O)c3cnn4ccc(NCC5CC5)nc34)c(C(C)(C)O)n2)CC1)C1CCN(Cc2cccc3c2n(C)c(=O)n3C2CCC(=O)NC2=O)CC1` (some centres unmarked) [I-268], the 50% inhibitory concentration (IC50) with OCI-LY10 is above 1000 nM. On IRAK4 (setting [1]), the 50% degradation concentration (DC50) is 100 to 1000 nM.
